Laboratory results from patent EP1430019B1, “SPHINGOLIPIDS” (priority 2001, dated 2003).

Experiments:
sphingomyelinases = experiment: Sphingomyelinase inhibition, HL60 cell sonicate (Table 4, acid or neutral not stated); type: biochemical, Human
Method: N-hexyl-sphingosyl phosphorylcholine (AD-2144) was tested as to its inhibitory effect on sphingomyelinases, acidic (i.e., with an optimum at about pH 5) or neutral (with a pH optimum at about pH 7.4). For this purpose a sonicate of HL60 leukemic cells was used as enzyme source. Increasing concentrations of AD-2144 were dispersed by a mixture of fluorescent and non-fluorescent sphingomyelin (Bodipy-C12-SPM:SPM, 1:19), buffer and 0.25% Triton-X100 in a volume of 100 µl. For acid sphingomyelinase 0.4M acetate buffer pH 5.0 was used; for neutral sphingomyelinase 0.2M Tris buffer, pH 7.4 and 5 mM magnesium chloride. To 100 µl of these dispersions, 100 µl of HL60 cells sonicate were added. Incubation was 2-3 hours after which 0.8 ml of chloroform:methanol 2:1 were added, stirred and the lower, chloroform phase was collected, dried and applied to a thin layer chromatography plate. The plate was developed in a mixture of chloroform and methanol, 87:3. The fluorescence of the product, i.e., Bodipy-C12-ceramide, was quantified.
For acid sphingomyelinase as well as for neutral spingomyelinase: at 300 µM of AD-2144 there was a reduction of over 60% in Bodipy-C12-ceramide. […]

HL60 cells [1] = experiment: HL60 cell viability, viable cell count with trypan blue; type: cell-based, Human
Method: The effect of AD-2646 on cell viability was analyzed by measuring cell mortality (viable cell count) and/or total protein quantity. HL60 cells grown in RMPI plus 10% fetal calf serum, were incubated with increasing concentrations of (2R,3R)-2-(N-tetradecylamine)-1-(4-nitrophenyl)-1,3-propanediol (AD-2646) in 6- or 24-well dishes. […] After 2 days the cells were collected, washed twice with saline, treated with trypan blue and the number of living (non-blue) cells was counted. Fig. 1 indicates an IC50 value of 5 µM.
Kinetic of the observed killing effect of the AD-2646 compound was next examined. HL60 cells were incubated with 40 µM of AD-2646 for 1, 3, 5 and 7 hours. Already after 1 hour a reduction of 60% of the viable cell number was observed.

Bod3-SPM [2] = experiment: Sphingolipid metabolism from Bodipy-C3-ceramide in HL60 cells: Bod3-SPM; type: cell-based, Human; conditions: for IC50: Homo sapiens, HL-60, 3 h, HL60, 3 hours, 2.5 µM Bodipy-C3-ceramide, cell + medium, read-out: Bod 3-SPM (IC50 for reduction); for inhibition of Bod3-SPM (fluorescent image): HL60, 10 µM
Method: (§1) In order to examine the effect of the different compounds on sphingolipids metabolism, different cell lines were incubated with increasing concentrations of different compounds of the invention in the presence of 2.5 µM Bodipy-C3-ceramide that was added to the culture medium as a solution in dimethylsulfoxide (not exceeding 0.1% DMSO of the final volium). After 3 hours, cells and medium were collected and centrifuged. Cells were next extracted with chloroform- methanol containing 2% acetic acid 1:1 (by volume) and the medium was shaken with an equal volume of chloroform-methanol, 1:1 (by volume). The phases were separated by centrifugation and the lower chloroform phase was collected. The solvents were evaporated and applied to thin layer chromatography silica gel plates (Whatman 4865-821) with a concentrating zone.
(§2) Plates were developed as follows: For medium: in chloroform-methanol-H2O, 75:25:4 by volume. For cells: plates were first developed with chloroform-methanol, 9:1, then dried and re-run in chloroform-methanol: H2O, 65:35:4.
(§3) Standards of Bodipy-C3-ceramide: Bodipy-C3-glucosylceramide (Bod3-GC) and Bodipy C3 sphingomyelin (Bod3-SPM) were used as markers. The fluorescence of the respective Bod3-SPM and Bod3-GC spots was quantified using a Fuji FLA-2000 scanner.

Bod3-SPM [3] = experiment: Sphingolipid metabolism from Bodipy-C3-ceramide in TSU-PR1 cells: Bod3-SPM; type: cell-based; conditions: Homo sapiens; TSU-PR1, 3 hours, Fig. 5; read-out: reduction of Bod3-SPM, IC50
Method: as §1, §2, §3
The effect of AD-2646 on sphingolipid metabolism was further examined using TSU-PR1 prostate cancer cells. […]

HL60 cells [4] = experiment: HL60 cell viability by total protein content (Bradford); type: cell-based, Human; conditions: for IC50: HL60, 2 days
Method: The effect of the AD-2646 compound on cell viability was further supported when the total protein content was quantified. HL60 cells were incubated as described above, with different concentrations of AD-2646. After 2 days the cells were collected, washed twice with saline, dispersed and following a short pulsing with a probe-sonicator their protein content was quantified by the Bradford procedure. Similarly to the viable cell counting results, the protein measurements indicated an IC50 value of 5 µM.
To analyze whether the AD-2646 compound may mediate its effect on cell viability and on total protein content, in cooperation with other compounds, the cooperative effect of this compound and Taxol was next evaluated. HL60 cells were incubated for two days with 4 µM AD2646 in the presence or absence of 2 ng Taxol. […]
(§4) The effect of different compounds of the invention on cell viability was next evaluated by measuring total cell protein quantity. Different cell lines were incubated for two days in the presence of increasing concentrations of the different compounds of the present invention.

TSU-PR1 cells = experiment: TSU-PR1 cytotoxicity by protein content; type: cell-based; conditions: Homo sapiens, 48 h; TSU-PR1, two days, Fig. 2
Method: In order to evaluate the generality of AD-2646 compound effect on cell viability, other cell lines were subjected to the same procedures disclosed herein above.
TSU-PR1 cells (prostate cancer cells) were incubated for two days with increasing concentrations of AD-2646. The protein content measurements shown in Fig. 2 indicate that the cells were killed with an IC50 of 6-7 µM.

Swiss mice = experiment: In vivo toxicity, mice viability
Method: Six groups, each of 5 Swiss mice were injected, intra-peritoneally with solutions of AD-2646, at varying concentrations, each in a volume of 100 µl. Injections were performed on days 1, 2, 3, 4, and mice viability was tested (Table 5).

[5] = tested on: Leishmania major promastigote; experiment: Leishmania major promastigote cell count; type: cell-based; conditions: promastigotes, 3 h, 27°C, cell counting; read-out: IC50 for cell reduction
Method: 2 × 10^5 Leishmania major promastigote cell, each in a volume of 100 µl were added to 100 µl medium (RPMI 1640 culture medium complemented with 20% FCS, 1% penicillin and 1% streptomycin) in 96-well plates containing zero and increasing concentrations of (2S,3R)-2-N-aminohexyl-1-(4-N-hexylamiuophenyl)-1,3-propanediol (AD-2663) in 2-fold serial dilution. After incubation period (3 h, 27°C) the number of cells was determined by counting on aliquot from each well on a Neulander cell counter under a microscope. The IC50 for cell reduction was 7 µM.

MCF7-NCi = experiment: Cell viability by total cell protein quantity, MCF7-NCi; type: cell-based; conditions: Homo sapiens, 48 h, two days
Method: as §4

MCF7-AdrR = experiment: Cell viability by total cell protein quantity, MCF7-AdrR; type: cell-based; conditions: Homo sapiens, 48 h, two days
Method: as §4

Bod 3-GC = experiment: Sphingolipid metabolism from Bodipy-C3-ceramide in MCF-NCi cells: Bod3-GC; type: cell-based; conditions: Homo sapiens, 3 hours, 2.5 µM Bodipy-C3-ceramide, read-out: Bod 3-GC (IC50 for reduction)
Method: as §1, §2, §3

Bod 3-SPM = experiment: Sphingolipid metabolism from Bodipy-C3-ceramide in MCF-NCi cells: Bod3-SPM; type: cell-based; conditions: Homo sapiens, 3 hours, 2.5 µM Bodipy-C3-ceramide, read-out: Bod 3-SPM (IC50 for reduction)
Method: as §1, §2, §3

U937 cells = experiment: Apoptosis in U937 cells, DEVDase/caspase 3 activity kit; type: cell-based; conditions: Homo sapiens, U-937; U937, 5 µM, 24 hours; read-out: number of apoptotic cells relative to control cells
Method: Myeloid, leukemic U937 cells were incubated for 24 hours in the absence or in the presence of 5 µM AD-2672 and AD-2665. Cells were then collected and the percent of apoptotic cells was determined using a kit quantifying the DEVDase, caspase 3 activity. The number of apoptotic cells incubated with AD-2672 exceeded 6-fold those in the control cells. Cells incubated with AD-2665 exceeded 2.8-fold those in the control cells.

Bod3-GC = biological target: T1, Bod3-GC (Homo sapiens, UniProt Q16739); experiment: Sphingolipid metabolism from Bodipy-C3-ceramide in HL60 cells: Bod3-GC; type: cell-based; conditions: HL60, 10 µM, Fig. 6
T1 sequence (Q16739 1-394): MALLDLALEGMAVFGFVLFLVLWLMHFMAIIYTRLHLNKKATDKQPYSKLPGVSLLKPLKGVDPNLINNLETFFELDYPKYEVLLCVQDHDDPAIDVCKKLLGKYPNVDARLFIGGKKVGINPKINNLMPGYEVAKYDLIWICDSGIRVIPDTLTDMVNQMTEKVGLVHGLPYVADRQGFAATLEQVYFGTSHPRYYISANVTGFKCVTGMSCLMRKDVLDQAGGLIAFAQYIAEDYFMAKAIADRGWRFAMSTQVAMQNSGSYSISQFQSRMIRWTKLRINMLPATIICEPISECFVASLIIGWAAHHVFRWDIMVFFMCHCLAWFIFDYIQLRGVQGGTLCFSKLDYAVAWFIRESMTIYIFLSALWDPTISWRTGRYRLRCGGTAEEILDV
Method: as §1, §2, §3

CCCCCCCCCCCCC/C=C/[C@H](O)[C@@H](COP(=O)([O-])OCC[N+](C)(C)C)NCCCCCC [AD-2144, N-hexyl-sphingosyl phosphorylcholine]
% reduction in Bodipy-C12-ceramide (sphingomyelinases; AD-2144 concentration 50µl): 30%
% reduction in Bodipy-C12-ceramide (sphingomyelinases; AD-2144 concentration 100µl): 44%
% reduction in Bodipy-C12-ceramide (sphingomyelinases; AD-2144 concentration 150µl): 65%
% reduction in Bodipy-C12-ceramide (sphingomyelinases; AD-2144 concentration 300µl): 82%

CCCCCCCCCCCCCCN[C@H](CO)[C@H](O)c1ccc([N+](=O)[O-])cc1 [AD-2646, (2R, 3R)-2-(N-tetradecylamine)-1-(4-nitrophenyl)-1,3-propanediol]
reduction of the viable cell number (HL60 cells [1]; HL60, 40 µM, after 1 hour): 60%
IC50 (HL60 cells [1]; Homo sapiens, HL-60, 48 h, HL60, 2 days, trypan blue, Fig. 1): 5 µM
IC50 (Bod3-SPM [2]): ~6 µM
IC50 (Bod3-SPM [3]): ~5 µM
Protein content (HL60 cells [4]; HL60, two days, 4 µM AD2646 alone): 174 µg
IC50 (HL60 cells [4]; Homo sapiens, HL-60, 48 h): 5 µM
IC50 (TSU-PR1 cells): 6 to 7 µM
No. of mice in each day (Swiss mice; 1mg/kg intra-peritoneally on days 1-4, group of 5, day 1): 5
No. of mice in each day (Swiss mice; 1mg/kg intra-peritoneally on days 1-4, group of 5, day 2): 5
No. of mice in each day (Swiss mice; 1mg/kg intra-peritoneally on days 1-4, group of 5, day 3): 5
No. of mice in each day (Swiss mice; 1mg/kg intra-peritoneally on days 1-4, group of 5, day 4): 5
No. of mice in each day (Swiss mice; 1mg/kg intra-peritoneally on days 1-4, group of 5, day 5): 5
No. of mice in each day (Swiss mice; 1mg/kg intra-peritoneally on days 1-4, group of 5, day 6): 5
No. of mice in each day (Swiss mice; 5mg/kg intra-peritoneally on days 1-4, group of 5, day 1): 5
No. of mice in each day (Swiss mice; 5mg/kg intra-peritoneally on days 1-4, group of 5, day 2): 5
No. of mice in each day (Swiss mice; 5mg/kg intra-peritoneally on days 1-4, group of 5, day 3): 5
No. of mice in each day (Swiss mice; 5mg/kg intra-peritoneally on days 1-4, group of 5, day 4): 5
No. of mice in each day (Swiss mice; 5mg/kg intra-peritoneally on days 1-4, group of 5, day 5): 5
No. of mice in each day (Swiss mice; 5mg/kg intra-peritoneally on days 1-4, group of 5, day 6): 5

CCCCCCNc1ccc([C@@H](O)[C@H](CO)NCCCCCC)cc1 [AD-2663, (2S,3R)-2-N-aminohexyl-1-(4-N-hexylamiuophenyl)-1,3-propanediol]
IC50 [5]: 7 µM

CCCCCCNc1ccc([C@@H](O)[C@@H](CO)NCCCCCC)cc1 [AD-2665, (2R,3R)-2-(N-hexylamine)-1-(4-N-hexylaminophenyl)-1,3-propanediol]
IC50 (MCF7-NCi): 3 µM
IC50 (Bod3-SPM [2]): 4 µM
IC50 (MCF7-AdrR): 7 µM
IC50 (Bod 3-GC): 10 µM
IC50 (Bod 3-SPM): 7 µM
fold induction at 5 µM (U937 cells): 2.8

CCCCCCCCCCCCCCN[C@H](CO)[C@H](O)c1ccc(N)cc1 [AD-2672, (2R,3R)-2-(N-tetradecylamine)-1-(4-aminophenyl)-1,3-propanediol]
level of Bod3-SPM (fluorescent image) (Bod3-SPM [2]; HL60, 5 and 10 µM, Fig. 6): strongly reduces the level of Bod3-SPM
IC50 (Bod3-SPM [2]): 4 µM
fold induction at 5 µM (U937 cells): 6

CCCCCCCCCCCC(=O)Nc1ccc([C@@H](O)[C@H](N)CO)cc1 [AD-2673]
inhibition of Bod3-SPM (fluorescent image) (Bod3-SPM [2]; Fig. 6): low inhibition of Bod3-SPM
IC50 (Bod3-SPM [2]): 6 µM
reduction of the level of Bod3-GC (fluorescent image) (Bod3-GC): much stronger reduction of the level of Bod3-GC
IC50 (HL60 cells [4]; Homo sapiens, HL-60, 48 h): 7.5 µM

CCCCCCCCCCCC(=O)Nc1ccc([C@H](O)[C@@H](N)CO)cc1 [AD-2674]
inhibition of Bod3-SPM (fluorescent image) (Bod3-SPM [2]; Fig. 6): low inhibition of Bod3-SPM
reduction of the level of Bod3-GC (fluorescent image) (Bod3-GC): much stronger reduction of the level of Bod3-GC

(2R, 3S)-2-BOC-amino-1-[4-N-(dodecanoyl-12-N-BOC-amine)-phenyl)-1,3-propanediol [AD-2620]
IC50 (HL60 cells [4]): 3 µM
